Molecular target: T1, MC4R (Homo sapiens, UniProt P32245)
T1 construct: expressed in transfected cells; host or cells: HEK (Human Embryonic Kidney) permanent expression cell line HEK MC4R-Luc, with CRE-LUC reporter
Test: MCR agonistic activity (luciferase assay / cAMP accumulation assay) in HEK MC4R-Luc cells
Format: cell-based
Details: agonistic activity to MC4R; ranges given; read-out: EC50 value in the range
Method: Physiological activity of the compounds of the present invention was assessed by measuring agonistic activity as well as binding activity for melanocortin receptors (MCR) according to methods A and B explained as follows.
As one of the methods to measure MCR agonistic activity of the compound according to the present invention, the expression level of a marker gene (for example, luciferase) which increases proportionally according to the increase of cAMP content in the cell, was measured.
First, permanent expression HEK (Human Embryonic Kidney) cell lines (HEK MC1R-Luc, MC3R-Luc, MC4R-Luc or MC5R-Luc) expressing the MCR gene of each subtype together with luciferase gene (CRE-LUC) under the control of CRE (cAMP Response Element) were constructed. The above cell lines were incubated in an incubator with 6% CO2 atmosphere at 37° C. using selection medium, DMEM (Dulbecco's Modified Eagles Medium) containing 10% heat-inactivated fetal bovine serum (Gibco/BRL), 100 unit/ml, penicillin (Gibco/BRL), 100 unit/ml streptomycin (Gibco/BRL), and 200 μg/ml geneticin (G418) (Gibco/BRL). […] After allowing the treated cells to be at room temperature for 15 minutes, luminescence was measured for each well by using luminometer (Victor). The level of luminescence induced by the stepwise-diluted agonist was converted to relative % value to those by the treatment of 10 μM NDP-MSH. […]
As another method to measure MCR agonistic activity of the compound according to the present invention, an increase of cAMP amount in the cell was measured.
First, permanent expression HEK (Human Embryonic Kidney) cell lines (HEK MC1R-Luc, MC3R-Luc, MC4R-Luc or MC5R-Luc) expressing the MCR gene of each subtype were plated onto each well of 24-well culture plates for Luminometer (Costar) with a concentration of 2×10^5 cell in 1 ml culture medium for each well, and then incubated in an incubator with 6% CO2 atmosphere at 37° C. for 24 hours. […] Then, the cAMP amount in each cell was measured using Amersham cAMP assay Kit (TRK432). […]

T1 sequence (P32245 whole entry, species assumed): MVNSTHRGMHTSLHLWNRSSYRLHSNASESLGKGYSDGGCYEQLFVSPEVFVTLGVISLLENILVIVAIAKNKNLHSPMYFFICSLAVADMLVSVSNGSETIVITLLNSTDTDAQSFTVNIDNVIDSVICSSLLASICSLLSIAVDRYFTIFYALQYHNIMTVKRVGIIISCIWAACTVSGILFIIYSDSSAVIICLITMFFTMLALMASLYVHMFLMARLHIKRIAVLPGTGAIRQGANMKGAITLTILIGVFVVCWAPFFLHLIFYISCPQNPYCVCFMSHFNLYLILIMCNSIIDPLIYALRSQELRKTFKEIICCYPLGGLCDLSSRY

EC50 [nM]	SMILES
100 to 1000	CC(=O)N(C1CCC(F)(F)CC1)[C@H]1C[C@@H](C(=O)N2CCN(C)CC2)N(C(=O)[C@@H]2CN(C(C)(C)C)C[C@H]2c2ccc(Cl)cc2)C1 [Example 27, N-{(3S,5S)-1-{[(3S,4R)-1-tert-butyl-4-(4-chlorophenyl)pyrrolidin-3-yl]carbonyl}-5-[(4-methylpiperazin-1-yl)carbonyl]pyrrolidin-3-yl}-N-(4,4-difluorocyclohexyl)acetamide]
10 to 100	CC(C)C(=O)N(c1ccc(F)cc1F)[C@H]1C[C@@H](C(=O)N2CCN(C)CC2)N(C(=O)[C@@H]2CN(C(C)(C)C)C[C@H]2c2ccc(Cl)cc2)C1 [Example 79, N-{(3S,5S)-1-{[(3S,4R)-1-tert-butyl-4-(4-chlorophenyl)pyrrolidin-3-yl]carbonyl}-5-[(4-methylpiperazin-1-yl)carbonyl]pyrrolidin-3-yl}-N-(2,4-difluorophenyl)-2-methylpropanamide]
100 to 1000	CN1CCN(C(=O)[C@@H]2C[C@H](N(C(=O)c3ccco3)c3ccc(F)cc3F)CN2C(=O)[C@@H]2CN(C(C)(C)C)C[C@H]2c2ccc(F)cc2F)CC1 [Example 84, N-{(3S,5S)-1-{[(3S,4R)-1-tert-butyl-4-(2,4-difluorophenyl)pyrrolidin-3-yl]carbonyl}-5-[(4-methylpiperazin-1-yl)carbonyl]pyrrolidin-3-yl}-N-(2,4-difluorophenyl)-2-furamide]

Source: patent US8288386B2, “Melanocortin receptor agonists” (LG Life Sciences Ltd., priority 2008, dated 2012)
